Consider one compound from US20190078052A1, “ENGINEERED ADHESIVE SUBSTRATES FOR HIGH-THROUGHPUT CELL ISOLATION AND SEPARATION” (ARIZONA BOARD OF REGENTS ON BEHALF OF ARIZONA STATE …, priority 2016, published 2019).

Assay [1] relates to T24 3D-DTMs. Nature of the assay: Cell cycle analysis of T24 3D-DTMs by propidium iodide flow cytometry. In kind it is cell-based. The procedure: Following five days of incubation on AM3, 3DTMs of T24 cells with NIH3T3 murine fibroblast cells were harvested for cell cycle analysis. Four or five individual 3DTMs of T24 cells alone or UMUC3 cells alone were harvested on the 7th day after seeding on Amikagels, collected in an eppendorf tube. 50 μL of 5 mg/ml collagenase was added to 3DTMs prepared using fibroblast helper cells for 30 minutes at 37° C. in order to facilitate their disassembly by gentle pipetting. Single cell 3DTMs were disassembled using manual pipetting.
Disassembled 3DTM cells were then centrifuged at 200 r.c.f. in order to collect the cell pellet. The pellet was resuspended in a solution of 1% v/v 1× Triton-X, 5% (v/v) fetal bovine serum (FBS), 50 μg/mL propidium iodide, and 0.006-0.01 units/mL ribonuclease A. After incubation for 30 minutes on ice, cells were analyzed for their cell cycle profiles using flow cytometry; the propidium iodide (PI) signal was detected using an excitation at 535 nm and emission at 617 nm.
Voltages of the FL2-A, SSC and FSC channels were adjusted in order to obtain best representative peaks for alignment of 2n (diploidy−G0/G1) peak to 200 intensity units during flow cytometry. FL2A (FL2-Area) provides the information regarding the pulse area of the emitted fluorescence signal (total cell fluorescence) whereas SSC and FSC provide the information regarding the […] light from the sample. FSC is a measure of diffracted light from the sample proportional to cell surface area or size and SSC is proportional to cell granularity or internal complexity.

Assay [2] concerns T24 3D-DTMs. Nature of the assay: Viability of T24 3D-DTMs after docetaxel treatment. The following applies: following treatment. In kind it is cell-based.
Another assay relates to phospho-AKT. As to conditions: cited from earlier work.
Assay [3] deals with T24 3D-DTMs. Kind of assay: Transfer of dormant T24 3D-DTMs from AM3 to AM1 Amikagel: cell escape, filopodia, microcolony formation. Type of assay: cell-based. As to conditions: for formation of micrometastasis-like nodules / microcolonies: 100 μM pre-treated, 15 days after transfer to AM1. The procedure:
1 ml of amikagel AM1, AM2 and AM3 pre-gel solutions were filtered through a 0.20 μm filter and 40 μL of the filtrate was added to each well of a 96 well plate. The plates were sealed with paraffin tape (Parafilm, Menasha, Wis.) and incubated in an oven maintained at 40° C. for 7.5 hours. After gelation, the surfaces of Amikagels were washed with 150 μL of Nanopure® water for 12 hours, in order to remove traces of unreacted monomers.
All 3DTM (3D tumor microenvironments) experiments were set up by liquid overlay culture (2) of cells on top of Amikagel surface in a total volume of […] media/well; either 100,000 cancer cells alone (single culture) or 50,000 stromal cells followed by 50,000 cancer cells (co-culture) were incubated, unless indicated otherwise in specific cases. After 48 hours of incubation, 50% of the media in the wells was replaced with fresh media i.e. DMEM/RPMI+10% (v/v) FBS+1% (v/v) Pen-Strep at regular intervals of 48 hours. Care was taken to withdraw and add the media slowly so as to not perturb 3DTM formation. Fresh media was added every 48 hours following cell plating. For 3DTM generation on 24 well plates, 400 μL of pre-gel volume was used instead of 40 μl. Different co-culture 3DTM systems are represented as fibroblast/stromal cells-epithelial cells (e.g. NIH3T3-T24, WPMY-1-T24) to accurately indicate the sequence of their addition. In most cases, 3DTMs were formed 5-7 days following culture on Amikagels.
T24 3DTMs were first formed on AM3, and transferred to AM1s on the seventh day following initial cell seeding, in order to investigate the role of chemo-mechanical properties of Amikagels on 3DTM fate, and migration of metastatic cells out of the 3DTM spheroid. Upon transfer, cells from 3DTMs were monitored for cell spreading and motility on the gel for an additional 7 days. After 7 days, cell cycle analysis and N-cadherin analysis was carried out on the all 3DTMs. Long-term experiments were also carried out where 3D-DTMs were continuously monitored for 15 days after their transfer from AM3 gel to AM1 gel.

A further assay deals with phospho-FAK. The following applies: cited from earlier work.
Another assay concerns the target cdc42 (Homo sapiens, UniProt P60953). The following applies: other cancer cell lines; cited from earlier work.

Structures are written as SMILES. Entries after “also recorded” stand apart in the source; their conditions may differ.

Sequence of cdc42 (P60953 whole entry, species assumed): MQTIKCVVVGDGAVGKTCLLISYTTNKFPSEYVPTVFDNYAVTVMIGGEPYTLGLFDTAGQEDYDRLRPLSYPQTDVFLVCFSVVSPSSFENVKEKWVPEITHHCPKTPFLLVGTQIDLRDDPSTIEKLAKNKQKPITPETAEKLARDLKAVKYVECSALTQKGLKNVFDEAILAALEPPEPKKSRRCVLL

In the case of `CC(=O)O[C@@]12CO[C@@H]1C[C@H](O)[C@@]1(C)C(=O)[C@H](O)C3=C(C)[C@@H](OC(=O)[C@H](O)[C@@H](NC(=O)OC(C)(C)C)c4ccccc4)C[C@@](O)([C@@H](OC(=O)c4ccccc4)[C@H]21)C3(C)C` [Docetaxel, docetaxel], in the assay with T24 3D-DTMs [1] (96 hours on AM3), the “cells in the G2/M phase, treated vs untreated 3D-DTM” value was “No significant differences” and the “cells in the sub-G0/G1 phase of the cell cycle, treated mother 3D-DTM” value is listed as “modest increase”. Besides, in the assay on T24 3D-DTMs [1] (following treatment), the “cell cycle profile of treated T24 3D-DTMs” value is “dormant cell cycle profile”. The “viability of treated T24 3D-DTMs” value in the assay on T24 3D-DTMs [2] is given as “remained viable”. Moreover, the “reduction of phospho-AKT expression compared to untreated T24 cells” value in the assay with phospho-AKT is reported as around 41%. Further, the “cellular escape from the mother 3D-DTM” value in the assay with T24 3D-DTMs [3] (12.5 μM-100 μM) was “significantly reduced”. The “formation of micrometastasis-like nodules / microcolonies” value with T24 3D-DTMs [3] was “significantly reduced cell escape and microcolony formation”. Besides, the “formation of micrometastasis-like nodules / microcolonies” value in the assay on T24 3D-DTMs [3] (listed as docetaxel) is “drastically reduced”. The “cells escaping the mother spheroid” value in the assay with T24 3D-DTMs [3] (100 μM pre-treatment on AM3, 48 hours after transfer to AM1) is reported as “significantly lesser number of cells escaped”. Further, the “filopodia formation on cells shed on AM1” value in the assay with T24 3D-DTMs [3] (after treatment of T24 3D-DTMs) is “did not show filopodia formation; also recorded: not observed”. The “reduction of phospho-FAK expression compared to untreated T24 cells” value in the assay on phospho-FAK is on record as around 34%. Also, on cdc42, the “inhibition of cdc42” value is “effectively inhibit”.
